Assay results taken from patent US20260325605A1, “INHIBITORS” (Zealand Pharma A/S, priority 2022, published 2026).
Read-outs that look alike come from different tables or passages of the source.

How the values were obtained:
[1] = biological target: T1, Kv1.6 (Homo sapiens, UniProt P17658); test: Patch clamp assay (QPatch), Kv1.6; assay type: cell-based; conditions: for IC50: QPatch, CHO cells stably expressing human Kv1.6, read-out: Potency IC50, Kv1.6; for Selectivity Kv1.6/Kv1.3: ratio of IC50 Kv1.6/Kv1.3
T1 construct: expressed in transfected cells

[2] = tested on: T-cell activation in rat whole blood; test: Example 4: IL-17A release in thapsigargin stimulated rat whole blood; assay type: cell-based, rat (Lewis or Sprague-Dawley); conditions: 24 Hr, at least 2 replicates, unit inferred, read-out: IC50 (inhibition of IL-17A release)
Procedure, shortened: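 Heparinised whole blood from naïve Lewis or Sprague-Dawley rats preincubated ≥5 min at RT with peptide, then stimulated with thapsigargin (40 μM stock added as one quarter of well volume) for 24 h at 37 °C. Supernatant IL-17A measured by ELISA; IC50 from curves normalised to stimulated and unstimulated controls, ≥2 replicates.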

[3] = biological target: T2, Kv1.2 (Homo sapiens, UniProt P16389); test: Patch clamp assay (QPatch), Kv1.2; assay type: cell-based; conditions: for IC50: QPatch, CHO cells stably expressing human Kv1.2, read-out: Potency IC50, Kv1.2; for Selectivity Kv1.2/Kv1.3: ratio of IC50 Kv1.2/Kv1.3
T2 construct: expressed in transfected cells
Protocol: (§1) Selectivity of Kv1.3 inhibitor peptides for Kv1.3 over other potassium ion channels (Kv1.1, Kv1.2 and Kv1.6) was determined using patch clamp assay.
(§2) Chinese Hamster Ovary (CHO) cell lines stably expressing exogenous human α-subunits of each potassium ion channel were grown and passaged under standard culture conditions.
(§3) The automated, chip-based planar patch clamp device QPatch® was used to quantitate the ionic currents. All recordings were made in the conventional whole-cell configuration after establishment of gigaohm seals. […] During experiments 0.1% (v/v) BSA was included as a vehicle in all external recording solutions. Currents were elicited from a holding potential of −80 mV using a voltage protocol, which shifted the voltage to 30 mV for 500 ms every 15 s.
(§4) Concentration-response relationships were established by cumulatively applying seven escalating concentrations of test sample to an individual cell with a recording period of 2 min per compound application.
(§5) The efficacy was determined as the mean charge for the last three sweeps at the end of each concentration application period from the cursor positions. The percent inhibition for each test dose application period was calculated as the reduction in mean cursor value (charge) relative to the cursor value measured at the end of the vehicle period and used to calculate the IC50 from the concentration response curve.

[4] = tested on: human peripheral blood mononuclear cells (PBMCs); test: Example 3a: IL-2 release from anti-CD3 stimulated human PBMCs; assay type: cell-based; conditions: for IC50: human PBMCs, 5 donors, anti-CD3 0.5 μg/mL, geometric mean, at least 4 replicates, read-out: anti-CD3 PBMC/ IL-2 IC50; for comparison of IC50 (IL-2 secretion) with ShK186 / Moka1: in words
Protocol: Human peripheral blood mononuclear cells (PBMCs) were used to assess the effects of Kv1.3 inhibitor peptides on T-cell activation as determined by IL-2 (cytokine) release after stimulation with anti-CD3.
Human PBMCs were obtained from Precision for Medicine (Frederick, MD). Cells from 5 donors were used. Plate-bound anti-CD3 was used to stimulate bulk T cells in the PBMC preparations. Briefly, 96-well plates were coated with anti-CD3 antibody for 2 hrs at 37° C., using 50 μL of a 0.5 μg/mL anti-CD3 solution diluted in 1×PBS. Thereafter the plates were washed twice.
Cyclosporin A (1 ug/ml) and Vm24 peptide (100 nM) were used as positive controls. Finally, 1×10^5 PBMCs were added to each well in a volume of 100 μL, giving a final volume of 200 μL per well. The plates were incubated for 20-24 hours in a 37° C./5% CO2 incubator. After centrifugation of the plates, 25 μl supernatant was transferred to IL-2 detection plates (MSD Human IL-2 Tissue Culture Kit, cat #K151AHB-2) and IL-2 was measures as described by the manufacturer (Meso Scale Discovery, Rockville, Maryland, USA).
All values derive from at least 4 replicates.

[5] = biological target: T3, Kv1.3 (Homo sapiens, UniProt P22001); test: Patch clamp assay (QPatch), Kv1.3; assay type: cell-based; conditions: CHO cells stably expressing human Kv1.3, read-out: Potency IC50, Kv1.3
T3 construct: expressed in transfected cells

[6] = biological target: T4, Kv1.1 (Homo sapiens, UniProt Q09470); test: Patch clamp assay (QPatch), Kv1.1; assay type: cell-based; conditions: for IC50: QPatch, CHO cells stably expressing human Kv1.1, read-out: Potency IC50, Kv1.1; for Selectivity Kv1.1/Kv1.3: ratio of IC50 Kv1.1/Kv1.3
T4 construct: expressed in transfected cells
Protocol: as §1, §2, §3, §4, §5

[7] = tested on: human peripheral blood mononuclear cells (PBMCs); test: Example 3b: IL-2 release from anti-CD3 stimulated human PBMCs; assay type: cell-based; conditions: 5 donors, anti-CD3 1 μg/ml, geometric mean, at least 6 replicates
Protocol: Human peripheral blood mononuclear cells (PBMCs) were used to assess the effects of Kv1.3 inhibitor peptides on T-cell activation as determined by IL-2 release after stimulation with anti-CD3.
Human PBMCs were obtained from Precision for Medicine (Frederick, MD). Cells from 5 donors were used. Plate-bound anti-CD3 was used to stimulate bulk T cells in the PBMC preparations. Briefly, 96-well plates were coated with anti-CD3 antibody for app. 16 hours at 5° C., using 50 μl of a 1 μg/ml anti-CD3 solution diluted in PBS. Thereafter the plates were washed twice.
Peptides were subsequently diluted in medium (RPMI 1640 with Glutamax-I containing, 10% v/v Fetal Bovine Serum, 1% v/v penicillin-streptomycin Solution) and added in a volume of 50 μl. The peptides indicated in Table 4b were used at concentrations ranging from 0.3 pM to 1000 nM (half log dilutions, starting concentrations varying). Cyclosporin A (1 μg/ml) and Vm24 peptide (100 nM) were used as positive controls.
Finally, 50,000 PBMCs in the same medium were added to each well in a volume of 50 μl, giving a final volume of 100 μl per well. The plates were incubated for 20-24 hours in a 370C/5% CO2 incubator. After centrifugation of the plates, 25 μl supernatant was transferred to IL-2 detection plates (MSD Human IL-2 Tissue Culture Kit, cat #K151AHB-2) and IL-2 was measures as described by the manufacturer (Meso Scale Discovery, Rockville, Maryland, USA).
All values derive from at least 6 replicates.

[8] = tested on: T-cell activation in human whole blood; test: Example 5: IFN-g, IL-2 and IL-17A release in thapsigargin stimulated human whole blood; assay type: cell-based; conditions: 24 Hr, at least 2 replicate experiments
Description: Human whole blood was used to assess the potency of Kv1.3 inhibitor peptides on T-cell activation as determined by release of the cytokines IFN-g, IL-2 and IL-17A after stimulation with thapsigargin. Addition of thapsigargin activates a signalling cascade resulting in T cell proliferation and cytokine production, in which the Kv1.3 ion channel plays a key role. Activity of Kv1.3 inhibitors in human primary T cells can thus be measured in this experimental system.
Human whole blood was obtained from healthy blood donors and was collected after informed consent using Sodium Heparin blood sampling tubes (Becton, Dickinson and Company (BD), Cat #367876). Test peptides were diluted to 4× final testing concentrations in assay buffer (Dulbecco's Modified Eagle's medium (DMEM) with high glucose and GlutaMAX (3.97 mM L-alanine-L-glutamine) (Gibco Cat #61965026) supplemented with 25 mM HEPES buffer, 1 mM Sodium Pyruvate, 100 units/ml Penicillin, 100 μg/ml Streptomycin and 0.05% Casein from bovine milk (Sigma-Aldrich Cat #C4765)) and 25 μl was added to wells of a 96 well tissue culture plate. Then 50 μl human whole blood was added and incubated for minimum 5 minutes at room temperature to allow compound binding. Then 25 μl of 40 μM thapsigargin diluted in assay buffer was added to all wells of the assay plates to activate the cells, followed by incubation for 24 Hr at 37° C./5% CO2 in a humidified box. The assay plates were centrifuged for 10 min at 300 g at 4° C. and the supernatants were transferred to new plates. The concentrations of IFN-g, IL-2 and IL-17A released to the supernatants were measured using a tri-plex human cytokine detection kit (MSD Human U-Plex IFN-g, IL-2 and IL-17A kit; Meso Scale Discovery Cat #K15067L-2) and all three cytokines were measured using a MSD MESO QuickPlex SQ 120 instrument as described by the manufacturer (Meso Scale Discovery, Rockville, Maryland, USA).
To determine the potency of inhibition for the compounds, the cytokine concentration data were fitted using a three parameter logistic dose response model based on the formula Y=Bottom+(Top−Bottom)/(1+IC50/X), where Y is measured cytokine concentrations, X is compound concentrations and Top, bottom and IC50 are parameters fitted using the software Graphpad Prism version 5.04. The IC50 value calculated from the concentration response curve represents the compound concentration that gives an inhibition response halfway between the basal (Bottom) response and the maximal (Top) response.
All values are derived from at least 2 replicate experiments. All of the tested Kv1.3 blockers were able to inhibit cytokine production from human T cells present in human whole blood that was stimulated with thapsigargin.

[9] = Example 6: Pharmacokinetic characterisation after s.c. administration; assay type: in vivo, rat (Sprague Dawley or Wistar); conditions: rat, 70 nmol/kg; for AUCINF / Cmax: plasma; for T1/2: plasma terminal elimination half-life
Protocol: Sprague Dawley or Wistar rats (males with a body weight of approximately 250-350 g) were given a single subcutaneous (s.c.) injection of each peptide to be tested.
Following s.c. administration of the selected peptides (dose 70 nmol/kg, dosing volume either 2 or 5 mL/kg), blood samples were drawn at 15 min, 30 min, 45 min, 60 min, 90 min, 2 h, 3 h, 4 h post-dose. At each sampling time point, samples from the rats were drawn by sublingual bleeding or by tail cut. After last sampling the rats were sacrificed by O2/CO2 anaesthesia. The dosing vehicle was 10 mM phosphate, 0.8% NaCl, 0.05% Polysorbate 20 (pH 6.0).
Plasma samples were analyzed after solid phase extraction (SPE) by liquid chromatography mass spectrometry (LC-MS/MS). Mean plasma concentrations were used for calculation of the pharmacokinetic parameters using the non-compartmental approach in Phoenix WinNonlin 6.4 or a later version. […]. AUCinf is the area under the plasma concentration−time curve extrapolated to infinity (AUCinf=AUClast+Clast/λz, where Clast is the last observed plasma concentration). Cmax is the maximum observed concentration, occurring at Tmax.

[10] = read-out: anti-CD3 PBMC/IL-2 IC50

T3 sequence (P22001 whole entry): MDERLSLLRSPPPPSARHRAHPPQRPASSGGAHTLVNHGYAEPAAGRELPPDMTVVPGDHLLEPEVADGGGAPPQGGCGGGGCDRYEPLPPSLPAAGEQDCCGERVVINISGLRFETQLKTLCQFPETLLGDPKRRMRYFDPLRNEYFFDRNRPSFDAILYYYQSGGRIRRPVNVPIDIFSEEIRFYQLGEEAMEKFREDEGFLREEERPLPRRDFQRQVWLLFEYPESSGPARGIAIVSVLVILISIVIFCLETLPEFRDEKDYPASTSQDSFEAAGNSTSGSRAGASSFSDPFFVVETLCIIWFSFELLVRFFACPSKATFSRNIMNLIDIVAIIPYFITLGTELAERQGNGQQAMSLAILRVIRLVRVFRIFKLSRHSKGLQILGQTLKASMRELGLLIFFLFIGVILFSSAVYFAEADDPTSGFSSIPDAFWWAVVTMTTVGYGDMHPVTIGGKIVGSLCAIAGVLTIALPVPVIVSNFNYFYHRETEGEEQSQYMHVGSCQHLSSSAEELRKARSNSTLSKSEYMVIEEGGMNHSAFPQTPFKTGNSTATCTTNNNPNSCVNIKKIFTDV
T2 sequence (P16389 whole entry): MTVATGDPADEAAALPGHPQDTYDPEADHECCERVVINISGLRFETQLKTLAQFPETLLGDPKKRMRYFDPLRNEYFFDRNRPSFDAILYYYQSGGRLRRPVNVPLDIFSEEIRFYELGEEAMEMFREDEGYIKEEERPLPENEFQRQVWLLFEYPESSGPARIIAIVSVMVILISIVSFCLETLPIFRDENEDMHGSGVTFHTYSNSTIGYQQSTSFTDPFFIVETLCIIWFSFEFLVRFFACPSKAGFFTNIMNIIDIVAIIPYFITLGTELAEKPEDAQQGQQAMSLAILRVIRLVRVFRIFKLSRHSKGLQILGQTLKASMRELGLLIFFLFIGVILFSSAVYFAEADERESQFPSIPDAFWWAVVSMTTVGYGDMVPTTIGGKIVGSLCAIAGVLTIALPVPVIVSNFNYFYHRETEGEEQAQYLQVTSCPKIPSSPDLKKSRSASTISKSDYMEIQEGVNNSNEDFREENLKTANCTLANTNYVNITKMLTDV
T4 sequence (Q09470 whole entry): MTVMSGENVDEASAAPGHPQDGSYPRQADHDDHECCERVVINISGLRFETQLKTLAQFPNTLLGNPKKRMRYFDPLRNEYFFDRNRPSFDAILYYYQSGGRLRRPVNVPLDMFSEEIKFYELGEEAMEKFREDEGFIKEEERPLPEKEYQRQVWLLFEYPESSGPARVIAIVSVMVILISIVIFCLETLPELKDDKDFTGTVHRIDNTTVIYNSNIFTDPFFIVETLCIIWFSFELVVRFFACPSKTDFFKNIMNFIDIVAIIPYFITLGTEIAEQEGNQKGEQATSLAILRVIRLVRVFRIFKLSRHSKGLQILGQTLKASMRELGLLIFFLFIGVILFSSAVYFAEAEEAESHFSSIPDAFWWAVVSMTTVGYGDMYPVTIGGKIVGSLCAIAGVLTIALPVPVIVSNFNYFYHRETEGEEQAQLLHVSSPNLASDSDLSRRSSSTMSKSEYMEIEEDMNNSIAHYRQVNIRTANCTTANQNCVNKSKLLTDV
T1 sequence (P17658 whole entry): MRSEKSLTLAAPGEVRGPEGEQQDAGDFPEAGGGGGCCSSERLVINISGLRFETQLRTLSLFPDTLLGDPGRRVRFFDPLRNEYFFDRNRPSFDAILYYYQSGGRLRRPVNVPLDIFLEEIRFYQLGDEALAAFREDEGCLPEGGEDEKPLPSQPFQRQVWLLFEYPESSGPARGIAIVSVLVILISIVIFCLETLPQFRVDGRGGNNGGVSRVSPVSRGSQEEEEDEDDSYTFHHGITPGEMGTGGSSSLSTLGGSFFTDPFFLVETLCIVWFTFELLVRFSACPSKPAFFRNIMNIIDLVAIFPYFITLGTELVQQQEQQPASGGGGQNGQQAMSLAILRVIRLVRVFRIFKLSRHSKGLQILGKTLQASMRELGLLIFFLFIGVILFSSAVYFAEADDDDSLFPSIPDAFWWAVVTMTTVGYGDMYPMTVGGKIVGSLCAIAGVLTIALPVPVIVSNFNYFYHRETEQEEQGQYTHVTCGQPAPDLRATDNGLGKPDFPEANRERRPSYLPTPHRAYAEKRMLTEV

| Substance | IC50 [1] [nM] | Selectivity Kv1.6/Kv1.3 [1] | IC50 [2] [nM] | IC50 [3] [nM] | Selectivity Kv1.2/Kv1.3 [3] | IC50 [4] [nM] | IC50 [5] [nM] | IC50 [6] [nM] | Selectivity Kv1.1/Kv1.3 [6] | IC50 ([7]; listed as ShK186, read-out: anti-CD3 PBMC/IL-2 IC50) [nM] | IC50 [7, 10] [nM] | comparison of IC50 (IL-2 secretion) with ShK186 / Moka1 [4] | IC50 ([8]; read-out: Average IC50, IFN-g) [nM] | IC50 ([8]; read-out: Average IC50, IL-2) [nM] | IC50 ([8]; read-out: Average IC50, IL-17A) [nM] | AUCINF [9] [µM·h] | Cmax [9] [nM] | T1/2 [9] [min] |
| --- | --- | --- | --- | --- | --- | --- | --- | --- | --- | --- | --- | --- | --- | --- | --- | --- | --- | --- |
| H-NMDMRC(1)SASVEC(2)KQKC(3)LDAIGSIFGKC(1)MNKKC(2)KC(3)YPR-NH2 [Peptide 21] | 2530 | 12045 | 1.2 | 99 | 471 | 0.1 | 0.21 | > 3000 | >14300 | – | – | – | – | – | – | – | – | – |
| H-[phosphotyrosyl][8-Amino-3,6-dioxaoctanoyl]RSCIDTIPKSRCTAFQCKHSMKYRLSFCRKTCGTC-NH2 [ShK-186, reference compound] | 0.45 | 7.4 | – | 43 | 682 | 0.07 | 0.095 | 0.31 | 4.9 | 0.05 | 0.04 | significantly lower than Moka1 | – | – | – | – | – | – |
| H-QMDMRC(1)SASVEC(2)KQKC(3)LKAIGSIFGKC(1)MNKKC(2)KC(3)YPR-OH [Peptide 1] | > 3000 | >7900 | 0.17 | 518 | 1364 | – | 0.38 | > 3000 | >7900 | – | 0.09 | – | – | – | – | – | – | – |
| H-C(1)SASVEC(2)KQKC(3)LKAIGSIFGKC(1)[Nle]NKKC(2)KC(3)YPR-NH2 [Peptide 108] | > 3000 | >7000 | 1.6 | > 3000 | >7000 | – | 0.43 | > 3000 | >7000 | – | – | – | 0.081 | 0.12 | 0.23 | – | – | – |
| H-NMDMRC(1)SASVEC(2)KQKC(3)LKAIGSIFGKC(1)MNKKC(2)KC(3)YPRRRTA-NH2 [Peptide 24] | 215 | 1472 | 0.57 | 28 | 191 | – | 0.15 | 626 | 4280 | – | 0.06 | – | – | – | – | – | – | – |
| H-NMDMRC(1)SASVEC(2)KQKC(3)LKAIGSIFGKC(1)[Nle]NKKC(2)KC(3)YPR-NH2 [Peptide 17] | 2460 | 10360 | – | 133 | 561 | 0.05 | 0.24 | > 3000 | >12600 | – | – | – | – | – | – | – | – | – |
| H-N[Nle]D[Nle]RC(1)SASVEC(2)KQSC(3)LKAIGSIFGKC(1)[Nle]NKKC(2)KC(3)YPR-NH2 [Peptide 49] | > 3000 | >8200 | 0.63 | > 3000 | >8200 | – | 0.37 | > 3000 | >8200 | – | 0.07 | – | – | – | – | – | – | – |
| H-NMDMRC(1)SASVEC(2)KQKC(3)LKAIGSRFGKC(1)MNKKC(2)KC(3)YPR-NH2 [Peptide 36] | 192 | 963 | 2.5 | 18 | 88 | 0.1 | 0.2 | > 3000 | >15000 | – | – | – | – | – | – | – | – | – |
| H-NMDMRC(1)SASVEC(2)KVKC(3)LKAIGSIFGKC(1)MNKKC(2)KC(3)YPR-NH2 [Peptide 18] | 912 | 2182 | 0.88 | 66 | 159 | 0.4 | 0.42 | > 3000 | >7200 | – | – | – | – | – | – | – | – | – |
| H-NMDMRC(1)SASVEC(2)KQKC(3)LKAIGSIFGKC(1)MNKKC(2)KC(3)YPR-OH [Peptide 3] | > 3000 | >11300 | 1 | 409 | 1540 | – | 0.27 | > 3000 | >11300 | – | 0.06 | – | 0.058 | 0.022 | 0.044 | 0.0839 | 36.9 | 59.4 |
| H-P[Nle]D[Nle]RC(1)SASVEC(2)KQKC(3)LKAIGSIFGKC(1)[Nle]NKKC(2)KC(3)YPR-NH2 [Peptide 42] | > 3000 | >17100 | 0.98 | 939 | 5362 | – | 0.18 | > 3000 | >17100 | – | 0.03 | – | 0.046 | 0.03 | 0.058 | – | – | – |
| H-INVKCSLPQQCIKPCKDAGMRFGKCMNKKCRCYS-OH [Moka1, reference compound] | – | >300 | – | – | 31 | – | – | – | >300 | – | – | less potent in inhibiting IL-2 secretion | – | – | – | – | – | – |
| H-NMDMRC(1)SASVEC(2)KQKC(3)LAAIGSIFGKC(1)MNKKC(2)KC(3)YPR-NH2 [Peptide 53] | > 3000 | >27500 | 0.69 | 88 | 803 | – | 0.11 | > 3000 | >27500 | – | – | – | 0.11 | 0.083 | 0.26 | 0.0485 | 31.2 | 53.4 |
